Data taken from US20240018157A1, “CYCLIC COMPOUNDS AND METHODS OF USING SAME” (Schrödinger, Inc., priority 2019, published 2024).

What was measured:
[1] = system: IL10 secretion, OCI-LY10 cells; test: Human IL10 secretion assay, Assay 1 (HTRF); assay type: cell-based; conditions: 24 h incubation, read-out: IL-10 Secretion IC50 [nM] Assay 1
Method: (§1) IL10 is one of the cytokines that are regulated via activation of NF-kB signaling. For example, in ABC-DLBCL cell lines, the activated NF-kB signaling leads to increased IL10 secretion. Inhibition of NF-kB signaling has been shown leading to decreased IL10 secretion.
Assay 1: OCI-LY10 cells were seeded in IMEM supplemented with 20% fetal bovine serum at 3×10^5 cells per well in 96-well round bottom plates (Corning 3799, Corning), treated with 100 nL of 3-fold serial compound dilutions, starting at 10 mM. The final vehicle concentration was 0.1% DMSO in all wells. After 24 h incubation, the cells were transferred to 96-PCR plates (Axygen: PCR-96-FLT-C) and centrifuged, then 16 μL of cell culture media was transferred to HTRF plates and IL10 levels were measured using human IL-10 Assay Kits (Cisbio) using HTRF format. The signals were transformed to percentage of remaining activity by using the high control (HC, median of signal from wells containing cells treated with DMSO) and low control (LC, median of signal from wells with no cells). IC50 values (nM) were determined using 4-parametric curve-fitting and Hill coefficient were obtained using Graph Pad Prism (Graph Pad software, Inc, USA) with non-linear regression analysis.

[2] = target: T1, full-length MALT1 protein His-MALT1(1-824) (Homo sapiens (Human), UniProt Q9UDY8); test: MALT1 protease assay, Assay 2 (1 nM MALT1, Ac-LRSR-AMC substrate); assay type: biochemical; conditions: 1 nM MALT1, 50 μM Ac-LRSR-AMC, 2 h pre-incubation, 8 hr incubation at RT
T1 sequence (Q9UDY8 whole entry): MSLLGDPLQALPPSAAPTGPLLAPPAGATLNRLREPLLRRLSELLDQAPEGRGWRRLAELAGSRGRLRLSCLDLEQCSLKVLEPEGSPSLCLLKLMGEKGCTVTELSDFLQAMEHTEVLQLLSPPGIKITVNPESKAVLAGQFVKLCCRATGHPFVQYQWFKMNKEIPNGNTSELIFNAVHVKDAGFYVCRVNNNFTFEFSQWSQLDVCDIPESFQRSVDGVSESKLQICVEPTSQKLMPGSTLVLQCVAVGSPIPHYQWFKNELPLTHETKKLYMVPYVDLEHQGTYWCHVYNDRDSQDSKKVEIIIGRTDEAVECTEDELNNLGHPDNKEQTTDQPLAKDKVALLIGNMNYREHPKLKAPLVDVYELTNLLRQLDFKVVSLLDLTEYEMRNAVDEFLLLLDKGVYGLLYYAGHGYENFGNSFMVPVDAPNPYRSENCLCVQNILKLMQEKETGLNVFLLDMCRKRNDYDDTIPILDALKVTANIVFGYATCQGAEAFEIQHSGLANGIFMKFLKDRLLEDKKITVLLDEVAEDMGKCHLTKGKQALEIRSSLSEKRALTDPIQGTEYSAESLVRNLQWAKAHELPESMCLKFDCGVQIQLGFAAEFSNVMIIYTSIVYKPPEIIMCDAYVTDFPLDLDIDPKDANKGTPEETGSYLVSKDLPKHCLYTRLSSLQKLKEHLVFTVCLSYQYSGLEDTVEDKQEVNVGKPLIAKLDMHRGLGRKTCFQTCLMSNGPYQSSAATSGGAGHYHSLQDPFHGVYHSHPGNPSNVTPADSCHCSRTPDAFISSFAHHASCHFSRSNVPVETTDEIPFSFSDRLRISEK
How it was run: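 His-MALT1(1-824) from baculovirus-infected insect cells at 1 nM, preincubated 2 h at RT with compound (0.1% DMSO), then 50 μM Ac-LRSR-AMC in 50 mM Tris pH 7.5, 600 mM sodium citrate, 1 mM DTT, 1 mM EDTA, 0.05% BSA. Fluorescence (ex 355/em 460 nm) after 8 h at RT, normalized to enzyme and substrate-only controls. IC50 and Hill coefficient by non-linear regression.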

[3] = system: IL10 secretion, OCI-LY10 cells; test: Human IL10 secretion assay, Assay 2 (Meso Scale Discovery); assay type: cell-based; conditions: 24 h incubation, MSD, read-out: IL-10 Secretion IC50 [nM] Assay 2
Method: as §1
Assay 2: OCI-LY10 cells were seeded in IMEM supplemented with 20% fetal bovine serum at 4.8×10^5 cells per 160 μL per well in 96-well V-bottom cell culture plates (coming, 3894), treated with 120 nL of 3-fold serial compound dilutions, starting at 4 mM. The final vehicle concentration was 0.075% DMSO in all wells. After a 24 h incubation, human IL-10 pre-coated plates (Meso Scale Discovery) were washed 3 times with PBST, and 50 μL culture medium was aspirated into the MSD plate and incubated at 4° C. overnight. The supernatant was then discarded and the wells were washed 3 times with PBST. SULFO-TAG Anti-human IL-10 Antibody (50×) was diluted 50 fold according to the Meso Scale Protocol, then 25 μL of SULFO-TAG Anti-human IL-10 Antibody (1×) was added. After 2 h of incubation at RT, the supernatant was discarded and the well was washed 3 times with PBST. 2× read buffer was added and the signal was read on an MSD Sector S600. The effect of a particular compound on IL10 secretion is shown relative to the effect of DMSO; set as 100%. IC50 values (nM) were determined using 4-parametric curve-fitting.

[4] = target: T1, full-length MALT1 protein His-MALT1(1-824); test: MALT1 protease assay, Assay 1 (2 nM MALT1, Ac-LRSR-AMC substrate); assay type: biochemical; conditions: 2 nM MALT1, 50 μM Ac-LRSR-AMC, 2 h pre-incubation, 8 hr incubation at RT
Method: MALT1 protease activity was assessed in an in vitro assay using a tetrapeptide as substrate and full-length MALT1 protein His-MALT1(1-824) purified from baculovirus-infected insect cells.
The final assay buffer includes 1 nM (Assay 2) or 2 nM (Assay 1) of MALT1 full-length protein, 50 μM Ac-LRSR-AMC substrate, 50 mM Tris pH 7.5, 600 mM Sodium Citrate, 1 mM DTT, 1 mM EDTA, and 0.05% BSA in 384-well plate format using black microtiter square well plates (Optiplate 384-F, Perkin Elmer).
Test compounds were dissolved in 100% DMSO at stock of 10 mM, with final DMSO concentration 0.1%. Test compounds were pre-incubated with MALT1 protein for 2 h at room temperature. Substrate was added after the pre-incubation and fluorescence signal was measured using Envision at excitation 355 nm and emission 460 nm after 8 hr incubation at RT. Increase in the assay signal was linear over this period and proportional with increase in the enzyme content.
The fluorescence units were transformed to percentage of remaining activity by using the high control (HC, median of fluorescence signal from wells containing MALT1 protein, substrate, and DMSO) and low control (LC, median of fluorescence signal from wells with substrate only) with the formula below: […]
IC50 and Hill coefficient were obtained using Graph Pad Prism (Graph Pad software, Inc, USA) with non-linear regression analysis.

Structure (SMILES)	IC50 [1] [nM]	IC50 [2] [nM]	IC50 [3] [nM]	IC50 [4] [nM]
Cc1cn2ncc3c(c2n1)C(C)(C)CN3C(=O)Nc1cnc(-n2nccn2)c(Cl)c1 [compound 134, N-(5-chloro-6-(2H-1,2,3-triazol-2-yl)pyridin-3-yl)-2,9,9-trimethyl-8,9-dihydro-7H-imidazo[1,2-b]pyrrolo[3,2-d]pyridazine-7-carboxamide]	100 to 1000	10 to 100	10 to 100	–
CN(C)C(=O)c1ncc(NC(=O)N2C[C@@](C)(C(F)(F)F)c3c2cnc2cc(Cl)nn32)cc1Cl [compound 123, (R)-2-chloro-N-(5-chloro-6-(dimethylcarbamoyl)pyridin-3-yl)-8-methyl-8-(trifluoromethyl)-7,8-dihydro-6H-pyrazolo[1,5-a]pyrrolo[2,3-e]pyrimidine-6-carboxamide]	10 to 100	10 to 100	10 to 100	–
C[C@@]1(C(F)(F)F)CN(C(=O)Nc2cnc(-n3cncn3)c(Cl)c2)c2cnc3cc(F)nn3c21 [compound 202, (R)-N-(5-chloro-6-(1H-1,2,4-triazol-1-yl)pyridin-3-yl)-2-fluoro-8-methyl-8-(trifluoromethyl)-7,8-dihydro-6H-pyrazolo[1,5-a]pyrrolo[2,3-e]pyrimidine-6-carboxamide]	100 to 1000	10 to 100	10 to 100	–
C[C@@]1(C(F)(F)F)CN(C(=O)Nc2cc(OC(F)F)cc(O[C@H]3CCNC3)n2)c2cnc3cc(Cl)nn3c21 [compound 133, (R)-2-chloro-N-(4-(difluoromethoxy)-6-(((S)-pyrrolidin-3-yl)oxy)pyridin-2-yl)-8-methyl-8-(trifluoromethyl)-7,8-dihydro-6H-pyrazolo[1,5-a]pyrrolo[2,3-e]pyrimidine-6-carboxamide]	100 to 1000	10 to 100	10 to 100	–
CN1CC[C@H](Oc2cc(NC(=O)N3C[C@@](C)(C(F)(F)F)c4c3cnc3cc(Cl)nn43)cc(C(F)F)n2)C1 [compound 111, (R)-2-chloro-N-(2-(difluoromethyl)-6-(((S)-1-methylpyrrolidin-3-yl)oxy)pyridin-4-yl)-8-methyl-8-(trifluoromethyl)-7,8-dihydro-6H-pyrazolo[1,5-a]pyrrolo[2,3-e]pyrimidine-6-carboxamide]	10 to 100	10 to 100	10 to 100	–
C[C@@]1(C(F)(F)F)CN(C(=O)Nc2cnc(-n3nccn3)c(C(F)(F)F)c2)c2cnc3cc(F)nn3c21 [compound 181, (R)-N-(6-(2H-1,2,3-triazol-2-yl)-5-(trifluoromethyl)pyridin-3-yl)-2-fluoro-8-methyl-8-(trifluoromethyl)-7,8-dihydro-6H-pyrazolo[1,5-a]pyrrolo[2,3-e]pyrimidine-6-carboxamide]	10 to 100	–	10 to 100	–
C[C@@]1(C(F)(F)F)CN(C(=O)Nc2cnc(OC(F)F)c(Cl)c2)c2cnc3cc(Cl)nn3c21 [compound 49, (R)-2-chloro-N-(5-chloro-6-(difluoromethoxy)pyridin-3-yl)-8-methyl-8-(trifluoromethyl)-7,8-dihydro-6H-pyrazolo[1,5-a]pyrrolo[2,3-e]pyrimidine-6-carboxamide]	10 to 100	–	10 to 100	–
CCN(C)C(=O)c1ncc(NC(=O)N2C[C@@](C)(C(F)(F)F)c3c2cnc2cc(Cl)nn32)cc1C(F)F [compound 149, (R)-2-chloro-N-(5-(difluoromethyl)-6-(ethyl(methyl)carbamoyl)pyridin-3-yl)-8-methyl-8-(trifluoromethyl)-7,8-dihydro-6H-pyrazolo[1,5-a]pyrrolo[2,3-e]pyrimidine-6-carboxamide]	10 to 100	–	10 to 100	–

Continued, values first:

IC50 [1] [nM]	IC50 [2] [nM]	IC50 [3] [nM]	IC50 [4] [nM]	Structure (SMILES)
100 to 1000	10 to 100	10 to 100	–	C[C@@]1(C(F)(F)F)CN(C(=O)Nc2cnc(N3CCOC3=O)c(C(F)F)c2)c2cnc3cc(Cl)nn3c21 [compound 113, (R)-2-chloro-N-(5-(difluoromethyl)-6-(2-oxooxazolidin-3-yl)pyridin-3-yl)-8-methyl-8-(trifluoromethyl)-7,8-dihydro-6H-pyrazolo[1,5-a]pyrrolo[2,3-e]pyrimidine-6-carboxamide]
–	–	–	10 to 100	Cn1cnc(-c2ncc(NC(=O)N3C[C@@](C)(C(F)(F)F)c4c3cnc3cc(Cl)nn43)cc2Cl)c1 [compound 28, (R)-2-chloro-N-(5-chloro-6-(1-methyl-1H-imidazol-4-yl)pyridin-3-yl)-8-methyl-8-(trifluoromethyl)-7,8-dihydro-6H-pyrazolo[1,5-a]pyrrolo[2,3-e]pyrimidine-6-carboxamide]
–	–	–	10 to 100	CNc1ncc(NC(=O)N2C[C@@](C)(C(F)(F)F)c3c2cnc2cc(Cl)nn32)cc1Cl [compound 51, (R)-2-chloro-N-(5-chloro-6-(methylamino)pyridin-3-yl)-8-methyl-8-(trifluoromethyl)-7,8-dihydro-6H-pyrazolo[1,5-a]pyrrolo[2,3-e]pyrimidine-6-carboxamide]
–	10 to 100	100 to 1000	–	C[C@@]1(C(F)(F)F)CN(C(=O)Nc2cc(C(F)(F)F)ncc2F)c2cnc3cc(Cl)nn3c21 [compound 96, (R)-2-chloro-N-(5-fluoro-2-(trifluoromethyl)pyridin-4-yl)-8-methyl-8-(trifluoromethyl)-7,8-dihydro-6H-pyrazolo[1,5-a]pyrrolo[2,3-e]pyrimidine-6-carboxamide]
–	–	–	10 to 100	C[C@@]1(C(F)(F)F)CN(C(=O)Nc2cc(Cl)c(=O)n(C(F)F)c2)c2cnc3cc(Cl)nn3c21 [compound 50, (R)-2-chloro-N-(5-chloro-1-(difluoromethyl)-6-oxo-1,6-dihydropyridin-3-yl)-8-methyl-8-(trifluoromethyl)-7,8-dihydro-6H-pyrazolo[1,5-a]pyrrolo[2,3-e]pyrimidine-6-carboxamide]
–	10 to 100	10 to 100	–	COc1cn(-c2ncc(NC(=O)N3C[C@@](C)(C(F)(F)F)c4c3cnc3cc(Cl)nn43)cc2Cl)nn1 [compound 95, (R)-2-chloro-N-(5-chloro-6-(4-methoxy-1H-1,2,3-triazol-1-yl)pyridin-3-yl)-8-methyl-8-(trifluoromethyl)-7,8-dihydro-6H-pyrazolo[1,5-a]pyrrolo[2,3-e]pyrimidine-6-carboxamide]
100 to 1000	10 to 100	10 to 100	–	CC(O)c1cnnn1-c1ncc(NC(=O)N2C[C@@](C)(C(F)(F)F)c3c2cnc2cc(F)nn32)cc1C(F)F (stereo partly drawn) [compound 188, (8R)-N-(5-(difluoromethyl)-6-(5-(1-hydroxyethyl)-1H-1,2,3-triazol-1-yl)pyridin-3-yl)-2-fluoro-8-methyl-8-(trifluoromethyl)-7,8-dihydro-6H-pyrazolo[1,5-a]pyrrolo[2,3-e]pyrimidine-6-carboxamide]
